Laboratory results from ChEMBL document CHEMBL3627628, “New macrocyclic analogs of the natural histone deacetylase inhibitor FK228; design, synthesis and preliminary biological evaluation” (Bioorg Med Chem, 2015).
The source made the active and inactive calls. The calls are words filed in the database; no cut-off is given here.

Columns and labels:
IGROV-1 = test: cells; conditions: Homo sapiens, IGROV-1, 72 h
cells = conditions: Homo sapiens, IGROV-1, 72 h
Histone deacetylase 1 = Histone deacetylase 1 (Homo sapiens, UniProt Q13547); test: Inhibition of HDAC1 (unknown origin) incubated for 1 hr by fluor de lys substrate based fluorescence method
[1] = target: T1, Protein deacetylase HDAC6 (Homo sapiens, UniProt Q9UBN7); test: Inhibition of HDAC6 (unknown origin) incubated for 1 hr by fluor de lys substrate based fluorescence method
T1 sequence (Q9UBN7 whole entry): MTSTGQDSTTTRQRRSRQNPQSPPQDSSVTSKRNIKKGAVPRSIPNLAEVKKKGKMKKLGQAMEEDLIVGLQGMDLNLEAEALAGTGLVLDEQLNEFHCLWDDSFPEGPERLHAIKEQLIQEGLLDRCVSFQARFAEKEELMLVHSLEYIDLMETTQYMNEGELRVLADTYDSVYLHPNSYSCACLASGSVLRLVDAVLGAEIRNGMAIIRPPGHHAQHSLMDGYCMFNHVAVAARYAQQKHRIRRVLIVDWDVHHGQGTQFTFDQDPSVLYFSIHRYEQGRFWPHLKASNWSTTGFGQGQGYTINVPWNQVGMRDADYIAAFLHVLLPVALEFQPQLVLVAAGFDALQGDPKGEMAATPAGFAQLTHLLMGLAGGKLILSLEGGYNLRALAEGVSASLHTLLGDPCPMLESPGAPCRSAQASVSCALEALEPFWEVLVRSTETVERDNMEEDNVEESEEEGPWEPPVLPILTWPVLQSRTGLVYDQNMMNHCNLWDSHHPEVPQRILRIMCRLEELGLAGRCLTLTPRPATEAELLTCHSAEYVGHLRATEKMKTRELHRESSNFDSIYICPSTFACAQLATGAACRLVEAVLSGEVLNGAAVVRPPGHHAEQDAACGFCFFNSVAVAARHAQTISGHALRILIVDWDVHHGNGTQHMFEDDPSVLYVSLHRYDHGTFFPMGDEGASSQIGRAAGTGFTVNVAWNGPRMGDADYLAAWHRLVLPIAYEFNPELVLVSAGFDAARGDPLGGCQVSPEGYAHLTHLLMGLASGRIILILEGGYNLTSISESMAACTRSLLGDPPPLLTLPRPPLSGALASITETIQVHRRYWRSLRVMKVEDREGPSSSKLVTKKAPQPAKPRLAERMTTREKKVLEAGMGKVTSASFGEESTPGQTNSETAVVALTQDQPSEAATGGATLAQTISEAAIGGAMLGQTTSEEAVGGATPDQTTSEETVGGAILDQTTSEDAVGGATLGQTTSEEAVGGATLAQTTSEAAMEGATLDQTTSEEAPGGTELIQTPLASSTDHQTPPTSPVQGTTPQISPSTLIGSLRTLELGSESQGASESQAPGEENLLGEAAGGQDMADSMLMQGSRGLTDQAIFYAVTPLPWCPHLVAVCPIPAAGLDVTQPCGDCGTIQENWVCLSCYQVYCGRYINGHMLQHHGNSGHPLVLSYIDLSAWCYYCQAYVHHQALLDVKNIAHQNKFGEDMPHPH

Histone deacetylase 8 = target: T2, Histone deacetylase 8 (Homo sapiens, UniProt Q9BY41); test: Inhibition of HDAC8 (unknown origin) incubated for 1 hr by fluor de lys substrate based fluorescence method
T2 sequence (Q9BY41 whole entry): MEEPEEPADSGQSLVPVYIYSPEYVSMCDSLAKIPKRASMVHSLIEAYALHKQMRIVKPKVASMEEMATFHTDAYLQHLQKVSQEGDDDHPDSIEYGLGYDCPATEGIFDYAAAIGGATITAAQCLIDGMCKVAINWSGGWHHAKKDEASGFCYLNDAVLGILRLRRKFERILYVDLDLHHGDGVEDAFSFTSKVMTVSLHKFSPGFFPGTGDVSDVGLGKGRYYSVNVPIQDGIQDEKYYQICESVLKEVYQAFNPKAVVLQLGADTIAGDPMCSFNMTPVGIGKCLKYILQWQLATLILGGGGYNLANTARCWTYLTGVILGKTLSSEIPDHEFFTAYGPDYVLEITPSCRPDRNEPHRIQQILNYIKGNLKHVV

HCT-116 = test: Antitumor activity against human HCT116 cells xenografted in Swiss mouse assessed as tumor growth inhibition at 10 mg/kg, ip dosed starting day 1 post tumor implantation and repeated every 7 days for 4 times; type: functional, organism-based
Mus musculus = test: Toxicity in human HCT116 cells xenografted Swiss mouse at 10 mg/kg, ip dosed starting day 1 post tumor implantation and repeated every 7 days for 4 times; type: organism-based, HCT-116; conditions: in vivo, 168 h

Sequence of Histone deacetylase 1 (Q13547 whole entry): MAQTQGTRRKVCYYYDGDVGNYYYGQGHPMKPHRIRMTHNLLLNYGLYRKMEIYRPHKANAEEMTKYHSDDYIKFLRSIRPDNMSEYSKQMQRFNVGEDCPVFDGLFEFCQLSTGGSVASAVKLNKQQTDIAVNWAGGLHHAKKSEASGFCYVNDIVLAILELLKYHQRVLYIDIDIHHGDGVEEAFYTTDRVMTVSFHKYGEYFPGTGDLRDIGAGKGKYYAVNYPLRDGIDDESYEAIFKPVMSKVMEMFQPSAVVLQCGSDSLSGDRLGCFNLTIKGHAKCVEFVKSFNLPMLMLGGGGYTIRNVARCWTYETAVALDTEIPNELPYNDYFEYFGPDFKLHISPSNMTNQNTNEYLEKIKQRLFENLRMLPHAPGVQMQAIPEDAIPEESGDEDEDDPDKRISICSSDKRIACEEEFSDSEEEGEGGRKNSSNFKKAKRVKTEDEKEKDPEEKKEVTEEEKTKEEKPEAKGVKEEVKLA

Row | Structure (SMILES) | IC50 (IGROV-1) | IC50 (cells) | IC50 (Histone deacetylase 1) | IC50 [1] | IC50 (Histone deacetylase 8) | TGI (HCT-116) | Activity (Mus musculus)
1 | CC(C)[C@H]1NC(=O)C[C@H]2/C=C/CCSSC[C@@H](NC1=O)C(=O)NC1CCC(CC1)C(=O)O2 | 7000 nM | 1500 nM | – | – | – | – | –
2 | CC(=O)SCC/C=C/[C@@H]1CC(=O)N[C@H](C(C)C)C(=O)N[C@H](Cc2cn(C)cn2)C(=O)N[C@H](C(C)C)c2cn(nn2)CC(=O)O1 | 10600 nM | 1500 nM | 1040 nM | 9890 nM | 1620 nM | – | –
3 | CC(=O)SCC/C=C/[C@@H]1CC(=O)N[C@H](C(C)C)C(=O)N[C@H](Cc2ccccc2)C(=O)N[C@H](C(C)C)c2cn(nn2)CC(=O)O1 | 3100 nM | 190 nM | 1050 nM | 8670 nM | 1800 nM | – | –
4 | CC(C)[C@@H]1NC(=O)CC(=O)O[C@@H]2/C=C/CCSSC[C@@H](NC(=O)[C@@H](C(C)C)NC(=O)C2)C(=O)N1 | 3300 nM | 11000 nM | – | – | – | – | –
5 | CCCCCCCCSSCC/C=C/[C@@H]1CC(=O)N[C@H](C(C)C)C(=O)N[C@H](C)C(=O)N[C@H](C(C)C)C(=O)NCC(=O)O1 | 700 nM | 30 nM | 820 nM | 8900 nM | 8010 nM | – | –
6 | CC(=O)SCC/C=C/[C@@H]1CC(=O)N[C@H](Cc2ccccc2)C(=O)N[C@H](C)C(=O)N[C@H](C(C)C)c2cn(nn2)CC(=O)O1 | 970 nM | 120 nM | – | – | – | – | –
7 | CC(C)[C@H]1NC(=O)C[C@H]2/C=C/CCSSC[C@@H](NC1=O)C(=O)NCc1cc(-c3ccccc3)ccc1CC(=O)O2 | 600 nM | 200 nM | – | – | – | Active | Non-toxic
8 | C=C(C)[C@H]1NC(=O)[C@H]2CSSCC/C=C/[C@H](CC(=O)N[C@H](C)C(=O)N2)OC(=O)C[C@@H]1O [SPIRUCHOSTATIN A] | 25 nM | 15 nM | – | – | – | – | –
9 | CC(C)[C@H]1NC(=O)C[C@H]2/C=C/CCSSC[C@@H](NC1=O)C(=O)Nc1ccccc1C(=O)NCC(=O)O2 | > 10000 nM | > 10000 nM | – | – | – | – | –
10 | CC(C)[C@H]1NC(=O)C[C@H]2/C=C/CCSSC[C@@H](NC1=O)C(=O)NCc1cc(Br)ccc1CC(=O)O2 | 2000 nM | 2500 nM | – | – | – | – | –
11 | CC[C@H]1NC(=O)[C@@H](C(C)C)NC(=O)C[C@@H](/C=C/CCSC(C)=O)OC(=O)CNC(=O)[C@@H](C(C)C)NC1=O | 6000 nM | 270 nM | – | – | – | – | –
12 | CC(C)[C@H]1NC(=O)C[C@H]2/C=C/CCSSC[C@@H](NC1=O)C(=O)N[C@H](C(C)C)c1cn(nn1)CC(=O)O2 | 400 nM | 110 nM | – | – | – | – | –
13 | CC(C)[C@H]1NC(=O)C[C@H]2/C=C/CCSSC[C@@H](NC1=O)C(=O)NCc1[nH]c3ccccc3c1CC(=O)O2 | 2810 nM | 780 nM | – | – | – | – | –
14 | CC(C)[C@H]1NC(=O)C[C@H]2/C=C/CCSSC[C@@H](NC1=O)C(=O)NCc1ccc(Br)cc1CC(=O)O2 | 2750 nM | 380 nM | – | – | – | – | –
15 | CC(C)[C@H]1NC(=O)C[C@H]2/C=C/CCSSC[C@@H](NC1=O)C(=O)NCc1ccc(Cl)cc1CC(=O)O2 | 3500 nM | 470 nM | – | – | – | – | –
16 | CCCCCCCC(=O)SCC/C=C/[C@@H]1CC(=O)N[C@H](C(C)C)C(=O)N[C@H](C)C(=O)N[C@H](C(C)C)C(=O)NCC(=O)O1 | 230 nM | 9 nM | 1270 nM | 18300 nM | 14300 nM | – | –
17 | CC(C)[C@H]1NC(=O)C[C@H]2/C=C/CCSSC[C@@H](NC1=O)C(=O)Nc1cccc(c1)CC(=O)O2 | > 10000 nM | > 10000 nM | – | – | – | – | –
18 | CC(C)[C@H]1NC(=O)C[C@H]2/C=C/CCSSC[C@@H](NC1=O)C(=O)NCc1cc(OC(F)(F)F)ccc1CC(=O)O2 | 510 nM | 180 nM | – | – | – | – | –
19 | CC(=O)SCC/C=C/[C@@H]1CC(=O)N[C@H](C(C)C)C(=O)N[C@H](Cc2ccc(O)cc2)C(=O)N[C@H](C(C)C)c2cn(nn2)CC(=O)O1 | > 10000 nM | 2200 nM | – | – | – | – | –
20 | CC(C)[C@H]1NC(=O)C[C@H]2/C=C/CCSSC[C@@H](NC1=O)C(=O)N(C)Cc1ccccc1CC(=O)O2 | > 10000 nM | > 10000 nM | – | – | – | – | –
21 | CC(C)[C@H]1NC(=O)C[C@H]2/C=C/CCSSC[C@@H](NC1=O)C(=O)NCc1ccccc1CC(=O)O2 | 2500 nM | 400 nM | – | – | – | – | –
22 | CC(C)[C@H]1NC(=O)C[C@H]2/C=C/CCSSC[C@@H](NC1=O)C(=O)N1CCC(CC1)CC(=O)O2 | > 10000 nM | > 10000 nM | – | – | – | – | –
